Series [1] concerns HIV-1. Put plainly: Persistent PBMC infection model, long-term culture with drug withdrawal. Particulars: for rebound of HIV-1 infection after drug withdrawal: off-drug inspection period extending to 12 weeks. Format: cell-based. As for the experimental part: Uninfected (5×10^6 cells) and infected PBMCs (0.5×10^6 cells) were co-incubated in a 25 ml culture flask at a final concentration of 0.22×10^6 cells/ml. Cultures were allowed to establish productive infection, defined by medium p24 at or above 250 pg/ml, and CPX was added. Cultures were replenished with Medium B and freshly isolated uninfected PBMCs on alternate days. For replacement of Medium B, half of the supernatant was gently exchanged without disturbing the cells, and the drug concentration was adjusted appropriately. For replacement with freshly isolated, stimulated and uninfected PBMCs, half of the cells and supernatant were removed and replaced with 2.5×10^6 cells in the proper volume of Medium B, with adjustment of the drug concentration. Cell-free supernatants were saved for p24 and viral RNA measurements.
p24 core antigen in the supernatant was quantified by ELISA (Retrotek HIV-1 p24™; ZeptoMetrix Corp.; Buffalo, N.Y.). HIV-1 RNA copy number in the supernatant was determined with a PCR-based and FDA-approved assay (Amplicor HIV-1 Monitor™; Roche Diagnostics Corp.; Indianapolis, Ind.). IFN-γ and IL-10 in the supernatant were determined by cytometric bead array (Human Th1/Th2 Cytokine Kit II™; BD Biosciences Pharmingen, San Jose, Calif.).
Next, assays were carried out to examine whether CPX can control established HIV-1 infection in primary cells. Long-term PBMC cultures were employed as a model for on-going, self-sustaining HIV-1 production. As before, infection was initiated by exposure to patient isolate-infected cells. To emulate the bulk flow of susceptible cells from a generative into an infective compartment that occurs in vivo, a replenishment protocol was followed. Freshly isolated uninfected primary cells were infused into the infected cultures at regular intervals during multi-month monitoring of viral parameters. HIV-1 RNA reached the range of 10^6 copies/ml within a week of patient isolate inoculation, and this robust infection was sustained for >3 months (FIG. 14; open squares).

The test system of series [2] is uninfected H9 cells. Briefly: Mitochondrial membrane potential (JC-1) in uninfected H9 cells. Format: cell-based. Particulars: 30 μM CPX; 200 μM DEF. The procedure:
The potential across the mitochondrial membrane of live cells was determined flow-cytometrically with the lipophilic cationic fluorochrome JC-1 (5,5′,6,6′-tetrachloro-1,1′,3,3′-tetraethylbenzimidazolcarbocyanine iodide) immediately after sample harvest (BD™ Mitoscreen Kit, BD Biosciences; San Diego, Calif.). DNA fragmentation was quantified flow-cytometrically, using a TUNEL (terminal deoxynucleotide transferase dUTP nick end-labeling) assay (APO-BRDU™; Phoenix Flow Systems; San Diego, Calif.) and a dual-color assay for annexin V binding and 7-AAD exclusion (Annexin V-PE 7-AAD Apoptosis Detection Kit I™; BD Biosciences Pharmingen, San Jose, Calif.). The apoptotic volume decrease of cells was assessed by the reduction of their diameter (VI-CELL™; Beckman Coulter; Fullerton, Calif.).
Next the effect of the drugs on apoptosis in H9 and H9-HIV cells was examined. Both CPX and DEF increased the collapse of Δψ in a manner that was dose-dependent and accentuated by viral infection (FIGS. 8E and F). […] Thus, exposure to CPX or DEF counteracted the HIV-mediated reduction of Δψ collapse and rendered infected cells more susceptible than uninfected cells to an early step in drug-induced apoptosis.

Series [3] deals with T1, deoxyhypusine hydroxylase (Homo sapiens, UniProt Q9BU89).
T1 construct: endogenous in cells; host or cells: H9-HIV cells (H9 infected with HIV-1 HTLV-IIIB)
T1 sequence (Q9BU89 1-302): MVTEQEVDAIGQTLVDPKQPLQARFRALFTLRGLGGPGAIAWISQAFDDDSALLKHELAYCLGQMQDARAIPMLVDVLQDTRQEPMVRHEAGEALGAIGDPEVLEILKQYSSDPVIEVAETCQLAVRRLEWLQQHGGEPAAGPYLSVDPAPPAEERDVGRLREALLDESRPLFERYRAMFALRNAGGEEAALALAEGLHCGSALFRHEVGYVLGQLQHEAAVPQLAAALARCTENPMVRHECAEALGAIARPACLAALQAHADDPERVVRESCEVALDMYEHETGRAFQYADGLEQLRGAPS
Put plainly: Deoxyhypusine hydroxylase activity in H9-HIV cells (peptide-bound hypusine / deoxyhypusine). The class given is cell-based. An excerpt: FIGS. 11A-D are a set of diagrams showing drug-activated apoptosis and iron chelation. A. Covalent structures of the medicinal chelators DFOX and DEF, and of the antifungal agent CPX and its chelation homolog Agent P2. DFOX, CPX, and Agent P2 interact with iron via a hydroxamate moiety, similar to the chelating domain of DEF. Arrows indicate the uniform bidentate mode of metal binding. DFOX contains three of these moieties and is a hexadentate chelator. B. Effect of drugs and Agent P2 on the expression of iron-dependant (IRE; hatched bars) and retrovirally-encoded (HIV; filled bars) gene expression in transfected 293T cells. Results are expressed relative to untreated controls. C. […] Triangles, peptide-bound hypusine; squares, peptide-bound deoxyhypusine. D. Induction of apoptosis by CPX and by DFOX. H9-HIV cells were treated for 24 hr and then assayed by flow cytometry using TUNEL. Results are expressed as percentage of cells that are TUNEL-positive (±SEM).

The conditions of series [4]: human, in vivo, cited from earlier work.
Where [5] appears, read: CPX 30 μM from day 7 for one month, isolate #990,010.

Data on 3 molecules can be found in patent US20120225093A1, “Abrogating HIV-1 Infection via Drug-Induced Reactivation of Apoptosis” (UNIVERSITY OF MEDICINE AND DENTISTRY OF NEW JERSEY, priority 2010, published 2012).

The structures appear in SMILES notation.

On to `Cc1cc(C2CCCCC2)n(O)c(=O)c1` [CPX, 6-cyclohexyl-1-hydroxy-4-methylpyridin-2[1H]-one], for which, in series [1] (CPX 30 μM from day 7), the “day after which viral RNA was not detected” value was greater than 38 days, the “day after which viral protein was not detected” value is greater than 21 days and the “decline in HIV-1 RNA levels” value is given as “four orders of magnitude”. In series [1] (setting [5]), the “level of p24” value is recorded as “to the limit of detectability” and the “level of viral RNA” value was “to the limit of detectability”. Also, the “rebound of HIV-1 infection after drug withdrawal” value in series [1] was “productive infection does not return after drug removal”. Besides, the “concentrations needed for enhanced Δψ collapse” value in series [2] is listed as “higher concentrations were required”. Besides, the “inhibition of deoxyhypusine hydroxylase activity / eIF5A hydroxylation” value in series [3] is recorded as “Dose-dependent inhibition of deoxyhypusine hydroxylase activity”. For the same molecule, the systemic absorption entry in series [4] was “miniscule systemic absorption”.
Take `Cc1c(O)c(=O)ccn1C` [DEF, 3-hydroxy-1,2-dimethylpyridin-4(1H)-one]: the “rebound of HIV-1 infection after drug withdrawal” value in series [1] is “productive infection does not return after drug removal”. The “concentrations needed for enhanced Δψ collapse” value in series [2] is “higher concentrations were required”. In series [4] (po), the concentration in serum is no less than 250 µM and the plasma levels entry was “up to 350 μM”.
Take `Cc1ccn(O)c(=O)c1` [Agent P2, 1-hydroxy-4-methylpyridin-2[1H]-one]: in series [3], the “inhibition of deoxyhypusine hydroxylase activity / eIF5A hydroxylation” value is “failed to inhibit eIF5A hydroxylation in vivo or in vitro”.
